In patent US8173808B2, “Substituted naphthalenyl-pyrimidine compounds” (ArQule, Inc., priority 2009, dated 2012):

Columns and labels:
DLD-1 = assay: MTS assay, DLD-1; type: cell-based; details: Homo sapiens, 72 hours, 1 Percent FBS
Protocol: (§1) Cells were maintained at 37° C., 5% CO2 in DMEM media supplemented with 1% fetal bovine serum, penicillin/streptomycin and fungizone (Invitrogen). Cells were seeded into 96-well tissue culture plates at 3000 per well and cultured at 37° C. for 18 hours. Test compounds were dissolved and diluted to 300× in DMSO then diluted 1:40 in DMEM. Cells were incubated with test compounds for 72 hours followed by incubation with tetrazolium compound (3-(4,5-dimethylthiazol-2-yl)-5-(3-carboxymethoxyphenyl)-2-(4-sulfophenyl)-2H-tetrazolium, inner salt; MTS) and the electron coupling reagent, phenazine methosulfate (PMS) for 4 hours. […] The ability of compounds to inhibit cell growth in this assay is correlated with the reduction of dehydrogenase enzyme activity found in metabolically active cells. The measurement of the absorbance of the formazan was assessed using a Victor (Perkin Elmer) microplate reader at 492 nm. The calculated IC50 value is the concentration of the test compound that causes a 50% decrease in the absorbance.

MDA-MB-231 = assay: MTS assay, MDA-MB-231; type: cell-based; details: Homo sapiens, 72 hours, 1 Percent FBS
Protocol: as §1

SMILES | inhibition at 10 µM (DLD-1) | inhibition at 10 µM (MDA-MB-231)
CNc1nccc(-c2cc(NC(=O)CNc3cccnc3)c3cc(OC)ccc3c2)n1 [Compound 54, N-{7-methoxy-3-[2-(methylamino)pyrimidin-4-yl]-1-naphthyl}-N~2~-pyridin-3-ylglycinamide] | 75% | 65%
COc1ccc2cc(-c3ccnc(NC4CC(C)(C)N(C)C(C)(C)C4)n3)cc(N3CCNCC3)c2c1 [Compound 118, 4-(6-methoxy-4-piperazin-1-yl-2-naphthyl)-N-(l,2,2,6,6-pentamethylpiperidin-4-yl)pyrimidin-2-amine] | 96% | 96%
CNc1nccc(-c2cc(NC(=O)CNCC(C)(C)CO)c3cc(OC)ccc3c2)n1 [Compound 50, N~2~-(3-hydroxy-2,2-dimethylpropyl)-N-{7-methoxy-3-[2-(methylamino)pyrimidin-4-yl]-1-naphthyl}glycinamide] | 97% | 94%
COCCNc1nccc(-c2cc(NC(=O)OC(C)(C)C)c3cc(OC)ccc3c2)n1 [Compound 100, tert-butyl (7-methoxy-3-{2-[(2-methoxyethyl)amino]pyrimidin-4-yl}-1-naphthyl)carbamate] | 70% | 31%
CNc1nccc(-c2cc(NC(=O)CNCCN3CCOCC3)c3cc(OC)ccc3c2)n1 [Compound 78, N-{7-methoxy-3-[2-(methylamino)pyrimidin-4-yl]-1-naphthyl}-N~2~-(2-morpholin-4-ylethyl)glycinamide] | 55% | 48%
COc1ccc(CCNc2nccc(-c3cc(NC(=O)OC(C)(C)C)c4cc(OC)ccc4c3)n2)cc1 [Compound 88, tert-butyl [7-methoxy-3-(2-{[2-(4-methoxyphenyl)ethyl]amino}pyrimidin-4-yl)-1-naphthyl]carbamate] | 90% | 64%
CNc1nccc(-c2cc(NC3CCN(c4nc(C)cc(C(=O)OC)n4)CC3)c3cc(OC)ccc3c2)n1 [Compound 163, methyl 2-[4-({7-methoxy-3-[2-(methylamino)pyrimidin-4-yl]-1-naphthyl}amino)piperidin-1-yl]-6-methylpyrimidine-4-carboxylate] | 97% | 98%
COc1ccc2cc(-c3ccnc(NCCc4cccnc4)n3)cc(N3CCNCC3)c2c1 [Compound 122, 4-(6-methoxy-4-piperazin-1-yl-2-naphthyl)-N-(2-pyridin-3-ylethyl)pyrimidin-2-amine] | 94% | 95%
CNc1nccc(-c2cc(NC(=O)CN3CCN(CCN(C)C)CC3)c3cc(OC)ccc3c2)n1 [Compound 67, 2-{4-[2-(dimethylamino)ethyl]piperazin-1-yl}-N-{7-methoxy-3-[2-(methylamino)pyrimidin-4-yl]-1-naphthyl}acetamide] | 31% | 53%
CNc1nccc(-c2cc(NC3CCN(c4ncnc5nc[nH]c45)CC3)c3cc(OC)ccc3c2)n1 [Compound 157, 4-(6-methoxy-4-{[1-(9H-purin-6-yl)piperidin-4-yl]amino}-2-naphthyl)-N-methylpyrimidin-2-amine] | 46% | 75%
CCN1CCCC(Nc2nccc(-c3cc(NC(=O)OC(C)(C)C)c4cc(OC)ccc4c3)n2)C1 (stereo not drawn) [Compound 91, tert-butyl (3-{2-[(1-ethylpiperidin-3-yl)amino]pyrimidin-4-yl}-7-methoxy-1-naphthyl)carbamate] | 97% | 85%
COc1ccc(CNc2nccc(-c3cc(N4CCOCC4)c4cc(OC)ccc4c3)n2)cc1 [Compound 28, N-(4-methoxybenzyl)-4-(6-methoxy-4-morpholin-4-yl-2-naphthyl)pyrimidin-2-amine] | 98% | 99%
CNc1nccc(-c2cc(NC(=O)CN3CCN(CCCN(C)C)CC3)c3cc(OC)ccc3c2)n1 [Compound 65, 2-{4-[3-(dimethylamino)propyl]piperazin-1-yl}-N-{7-methoxy-3-[2-(methylamino)pyrimidin-4-yl]-1-naphthyl}acetamide] | 98% | 98%
COc1ccc2cc(-c3ccnc(NCCc4ccc(OC)c(OC)c4)n3)cc(N3CCOCC3)c2c1 [Compound 18, N-[2-(3,4-dimethoxyphenyl)ethyl]-4-(6-methoxy-4-morpholin-4-yl-2-naphthyl)pyrimidin-2-amine] | 88% | 31%
COc1ccc2cc(-c3ccnc(NCc4ccccn4)n3)cc(N3CCNCC3)c2c1 [Compound 120, 4-(6-methoxy-4-piperazin-1-yl-2-naphthyl)-N-(pyridin-2-ylmethyl)pyrimidin-2-amine] | 83% | 78%
COc1cccc(CNc2nccc(-c3cc(NC(=O)OC(C)(C)C)c4cc(OC)ccc4c3)n2)c1 [Compound 99, tert-butyl (7-methoxy-3-{2-[(3-methoxybenzyl)amino]pyrimidin-4-yl}-1-naphthyl)carbamate] | 97% | 98%
COc1ccc2cc(-c3ccnc(NCCc4cccnc4)n3)cc(N3CCOCC3)c2c1 [Compound 21, 4-(6-methoxy-4-morpholin-4-yl-2-naphthyl)-N-(2-pyridin-3-ylethyl)pyrimidin-2-amine] | 97% | 99%
CCCCN(C)CCNCC(=O)Nc1cc(-c2ccnc(NC)n2)cc2ccc(OC)cc12 [Compound 51, N~2~-{2-[butyl(methyl)amino]ethyl}-N-{7-methoxy-3-[2-(methylamino)pyrimidin-4-yl]-1-naphthyl}glycinamide] | 98% | 93%
COc1ccc2cc(-c3ccnc(NCc4ccccn4)n3)cc(N3CCOCC3)c2c1 [Compound 25, 4-(6-methoxy-4-morpholin-4-yl-2-naphthyl)-N-(pyridin-2-ylmethyl)pyrimidin-2-amine] | 82% | 74%
COc1ccc2cc(-c3ccnc(NCCc4ccccc4OC)n3)cc(N3CCNCC3)c2c1 [Compound 124, N-[2-(2-methoxyphenyl)ethyl]-4-(6-methoxy-4-piperazin-1-yl-2-naphthyl)pyrimidin-2-amine] | 97% | 98%
CNc1nccc(-c2cc(NC(=O)CN3CCN(CCc4cccs4)CC3)c3cc(OC)ccc3c2)n1 [Compound 46, N-{7-methoxy-3-[2-(methylamino)pyrimidin-4-yl]-1-naphthyl}-2-{4-[2-(2-thienyl)ethyl]piperazin-1-yl}acetamide] | 99% | 99%
CNc1nccc(-c2cc(NC(=O)CN3CCN(CCN4CCCC4)CC3)c3cc(OC)ccc3c2)n1 [Compound 64, N-{7-methoxy-3-[2-(methylamino)pyrimidin-4-yl]-1-naphthyl}-2-[4-(2-pyrrolidin-1-ylethyl)piperazin-1-yl]acetamide] | 89% | 71%
CNc1nccc(-c2cc(NC3CCN(c4ncnc5c(C)csc45)CC3)c3cc(OC)ccc3c2)n1 [Compound 164, 4-(6-methoxy-4-{[l-(7-methylthieno[3,2-d]pyrimidin-4-yl)piperidin-4-yl]amino}-2-naphthyl)-N-methylpyrimidin-2-amine] | 98% | 90%
CNc1nccc(-c2cc(NC(=O)CNCCOC)c3cc(OC)ccc3c2)n1 [Compound 85, N~2~-(2-methoxyethyl)-N-{7-methoxy-3-[2-(methylamino)pyrimidin-4-yl]-1-naphthyl}glycinamide] | 98% | 90%
COc1ccc2cc(-c3ccnc(NCCc4ccccc4OC)n3)cc(NC(=O)OC(C)(C)C)c2c1 [Compound 92, tert-butyl [7-methoxy-3-(2-{[2-(2-methoxyphenyl)ethyl]amino}pyrimidin-4-yl)-1-naphthyl]carbamate] | 98% | 99%
COc1ccc2cc(-c3ccnc(NCCN4CCCC4)n3)cc(N3CCOCC3)c2c1 [Compound 29, 4-(6-methoxy-4-morpholin-4-yl-2-naphthyl)-N-(2-pyrrolidin-1-ylethyl)pyrimidin-2-amine] | 81% | 76%
CNc1nccc(-c2cc(NC(=O)CN3CCN(c4nccc(C(F)(F)F)n4)CC3)c3cc(OC)ccc3c2)n1 [Compound 75, N-{7-methoxy-3-[2-(methylamino)pyrimidin-4-yl]-1-naphthyl}-2-{4-[4-(trifluoromethyl)pyrimidin-2-yl]piperazin-1-yl}acetamide] | 97% | 98%
COc1ccc2cc(-c3ccnc(NC4CCN(Cc5ccccc5)CC4)n3)cc(NC(=O)OC(C)(C)C)c2c1 [Compound 101, tert-butyl (3-{2-[(1-benzylpiperidin-4-yl)amino]pyrimidin-4-yl}-7-methoxy-1-naphthyl)carbamate] | 96% | 98%
CNc1nccc(-c2cc(NC3CCN(c4cc(C(=N)N)cc(Cl)n4)CC3)c3cc(OC)ccc3c2)n1 [Compound 158, 2-chloro-6-[4-({7-methoxy-3-[2-(methylamino)pyrimidin-4-yl]-1-naphthyl}amino)piperidin-1-yl]pyridine-4-carboximidamide] | 98% | 98%
COc1ccc2cc(-c3ccnc(NCCc4ccccn4)n3)cc(N3CCNCC3)c2c1 [Compound 123, 4-(6-methoxy-4-piperazin-1-yl-2-naphthyl)-N-(2-pyridin-2-ylethyl)pyrimidin-2-amine] | 97% | 98%
